In ChEMBL document CHEMBL2073822, “cDNA sequence, transport function, and genomic organization of human OCTN2, a new member of the organic cation transporter family” (Biochem Biophys Res Commun, 1998):

Columns and labels:
[1] = biological target: T1, OCTN2 (organic cation/carnitine transporter 2) (Homo sapiens, UniProt O76082); assay: TP_TRANSPORTER: inhibition of TEA uptake (TEA: 20 uM, Methamphetamine: 5000 uM) in OCTN2-expressing HeLa cells; format: functional, cell-based; parameters: scale not given: the % may be the effect or the level left; settings: HeLa cells that express OCTN2, probe TEA, read-out: Activity
T1 sequence (O76082 whole entry): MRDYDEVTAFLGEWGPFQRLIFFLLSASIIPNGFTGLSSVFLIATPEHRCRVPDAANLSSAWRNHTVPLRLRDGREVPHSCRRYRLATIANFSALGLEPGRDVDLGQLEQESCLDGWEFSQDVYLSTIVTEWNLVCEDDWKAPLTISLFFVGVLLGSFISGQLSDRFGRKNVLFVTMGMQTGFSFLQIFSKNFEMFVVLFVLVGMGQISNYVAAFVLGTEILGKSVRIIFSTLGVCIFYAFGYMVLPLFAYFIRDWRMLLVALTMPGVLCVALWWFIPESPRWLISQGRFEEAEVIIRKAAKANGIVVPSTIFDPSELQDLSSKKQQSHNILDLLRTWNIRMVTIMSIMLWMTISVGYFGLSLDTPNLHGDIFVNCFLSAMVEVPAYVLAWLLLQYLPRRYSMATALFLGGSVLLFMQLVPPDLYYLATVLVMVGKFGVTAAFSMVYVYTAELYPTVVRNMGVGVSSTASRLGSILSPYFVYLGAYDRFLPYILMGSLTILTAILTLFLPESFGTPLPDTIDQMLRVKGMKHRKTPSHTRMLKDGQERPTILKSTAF

[2] = biological target: T1, OCTN2 (organic cation/carnitine transporter 2); assay: in vitro; settings: HeLa cells that express OCTN2, probe TEA, 20 uM
Description: TP_TRANSPORTER: inhibition of TEA uptake (TEA: 20 uM, Nicotine: 5000 uM) in OCTN2-expressing HeLa cells

[3] = biological target: T2, Organic cation/carnitine transporter 2 (Homo sapiens, UniProt O76082); assay: TP_TRANSPORTER: inhibition of TEA uptake (TEA: 20 uM, Guanidine: 5000 uM) in OCTN2-expressing HeLa cells; format: functional, cell-based
T2 sequence (O76082 whole entry): T1 sequence (O76082 whole entry)

[4] = biological target: T2, Organic cation/carnitine transporter 2; assay: TP_TRANSPORTER: inhibition of TEA uptake (TEA: 20 uM, Amphetamine: 5000 uM) in OCTN2-expressing HeLa cells; format: functional, cell-based
[5] = biological target: T1, OCTN2 (organic cation/carnitine transporter 2); assay: TP_TRANSPORTER: inhibition of TEA uptake (TEA: 20 uM Procainamide: 5000 uM) in OCTN2-expressing HeLa cells; format: functional, cell-based; parameters: scale not given: the % may be the effect or the level left; settings: HeLa cells that express OCTN2, probe TEA, read-out: Activity
[6] = biological target: T1, OCTN2 (organic cation/carnitine transporter 2); assay: in vitro; settings: HeLa cells that express OCTN2, probe TEA, 20 uM; remark: listed apart in the source
Description: TP_TRANSPORTER: inhibition of TEA uptake (TEA: 20 uM, Cimetidine: 5000 uM) in OCTN2-expressing HeLa cells

[7] = biological target: T1, OCTN2 (organic cation/carnitine transporter 2); assay: in vitro; settings: HeLa cells that express OCTN2, probe TEA, 20 uM; remark: listed apart in the source
Description: TP_TRANSPORTER: inhibition of TEA uptake (TEA: 20 uM, Choline: 5000 uM) in OCTN2-expressing HeLa cells

[8] = biological target: T2, Organic cation/carnitine transporter 2; assay: TP_TRANSPORTER: inhibition of TEA uptake (TEA: 20 uM, MPP+: 5000 uM) in OCTN2-expressing HeLa cells; format: functional, cell-based; parameters: scale not given: the % may be the effect or the level left

In the case of `CN[C@@H](C)Cc1ccccc1` [METHAMPHETAMINE], the activity at 5000 µM [1] is reported as 66%.
For `CN1CCC[C@H]1c1cccnc1` [NICOTINE], the activity at 5000 µM [2] was 44%.
In the case of `N=C(N)N` [GUANIDINE], the Activity [3] is reported as “is not an inhibitor [-]”.
In the case of `CC(N)Cc1ccccc1` (stereo not drawn) [AMPHETAMINE], the Activity [4] is reported as “is not an inhibitor [-]”.
Compound `CCN(CC)CCNC(=O)c1ccc(N)cc1` [PROCAINAMIDE] has an activity at 5000 µM [5] of 39%.
`CN/C(=N/CCSCc1nc[nH]c1C)NC#N` [CIMETIDINE] gave an activity at 5000 µM [6] of 39%.
In the case of `C[N+](C)(C)CCO` [CHOLINE], the activity at 5000 µM [7] is reported as 75%.
With `C[n+]1ccc(-c2ccccc2)cc1` the Activity [8] was 39%.
